Legend:
Assay type in all cases: in vivo
[1] = system: soybean (Glycine max L., var. Pella 86, SOY); experiment: Pre-emerge greenhouse test, crop damage rating; design: key to SOY crop damage rating: 0 = no damage, 100 = complete death of all plants; conditions: 14 days after application, rating scale 0-100
In short: (§1)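 Seeds sown in sandy loam one day before track-sprayer application of acetone solutions at 125–1000 g ai/ha (187 l/ha), then surface-watered to incorporate and bottom-watered. Injury scored visually at 14 days on a 0–100 scale (0 no damage, 100 complete death).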

[2] = system: soybean (Glycine max L., var. Pella 86, SOY); experiment: Post-emerge greenhouse test, crop damage rating; design: key to crop damage rating SOY: 0-100 scale: 0 = no damage, 100 = complete death of all plants; conditions: 14 days after application; for crop damage rating SOY: scale 0-100
In short: (§2)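 Plants at the 2-3 leaf stage, sown 8-21 days earlier, were track-sprayed post-emergence with compound in acetone plus 0.25% v/v non-ionic surfactant at 63-1000 g ai/ha (187 l/ha). Damage was rated at 14 days on a 0-100 scale (0 none, 100 all plants dead), for both crop injury and weed control.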

[3] = system: common ragweed (Ambrosia artemisiifolia L., AMBEL); experiment: Post-emerge greenhouse herbicide test, phytotoxicity rating; conditions: 14 days after application; for phytotoxicity rating AMBEL: scale 0-100
In short: as §2

[4] = system: field corn (Zea mays L., var. Dekalb 535, CORN); experiment: Pre-emerge greenhouse test, crop damage rating; conditions: 14 days after application, rating scale 0-100
In short: as §1

[5] = system: upland rice (Oryza sp., var.Tebonnet, RICE); experiment: Pre-emerge greenhouse test, crop damage rating; conditions: 14 days after application, rating scale 0-100
In short: as §1

[6] = system: field corn (Zea mays L., var. Dekalb 535, CORN); experiment: Post-emerge greenhouse test, crop damage rating; conditions: 14 days after application; for crop damage rating CORN: scale 0-100
In short: as §2

[7] = system: upland rice (Oryza sp., var.Tebonnet, RICE); experiment: Post-emerge greenhouse test, crop damage rating; conditions: 14 days after application; for crop damage rating RICE: scale 0-100
In short: as §2

[8] = system: barnyardgrass (Echinochloa crusgalli, ECHCG); experiment: Post-emerge greenhouse herbicide test, phytotoxicity rating; conditions: 14 days after application; for phytotoxicity rating ECHCG: scale 0-100
In short: as §2

[9] = system: large crabgrass (Digitaria sanguinalis, DIGSA); experiment: as above; conditions: 14 days after application; for phytotoxicity rating DIGSA: scale 0-100
In short: as §2

[10] = system: Johnsongrass (Sorghum halepense, SORHA); experiment: as above; conditions: 14 days after application; for phytotoxicity rating SORHA: scale 0-100
In short: as §2

[11] = system: velvetleaf (Abutilon theophrasti, ABUTH); experiment: as above; conditions: 14 days after application; for phytotoxicity rating ABUTH: scale 0-100
In short: as §2

[12] = system: green foxtail (Setaria viridis, SETVI); experiment: as above; conditions: 14 days after application; for phytotoxicity rating SETVI: scale 0-100
In short: as §2

[13] = system: lambsquarters (Chenopodium album, CHEAL); experiment: as above; conditions: 14 days after application; for phytotoxicity rating CHEAL: scale 0-100
In short: as §2

[14] = system: sicklepod (Cassia obtusifolia, CASOB); experiment: as above; conditions: 14 days after application; for phytotoxicity rating CASOB: scale 0-100
In short: as §2

[15] = system: redroot pigweed (Amaranthus retroflexus, AMARE); experiment: as above; conditions: 14 days after application; for phytotoxicity rating AMARE: scale 0-100
In short: as §2

[16] = system: ivyleaf morningglory (Ipomoea hederacea, IPOHE); experiment: as above; conditions: 14 days after application; for phytotoxicity rating IPOHE: scale 0-100
In short: as §2

[17] = system: common ragweed (Ambrosia artemisiifolia L., AMBEL); experiment: Pre-emerge greenhouse herbicide test, phytotoxicity rating; conditions: 14 days after application, rating scale 0-100
In short: as §1

[18] = system: barnyardgrass (Echinochloa crusgalli, ECHCG); experiment: as above; conditions: 14 days after application, rating scale 0-100
In short: as §1

[19] = system: large crabgrass (Digitaria sanguinalis, DIGSA); experiment: as above; conditions: 14 days after application, rating scale 0-100
In short: as §1

[20] = system: Johnsongrass (Sorghum halepense, SORHA); experiment: as above; conditions: 14 days after application, rating scale 0-100
In short: as §1

[21] = system: velvetleaf (Abutilon theophrasti, ABUTH); experiment: as above; conditions: 14 days after application, rating scale 0-100
In short: as §1

[22] = system: green foxtail (Setaria viridis, SETVI); experiment: as above; conditions: 14 days after application, rating scale 0-100
In short: as §1

[23] = system: lambsquarters (Chenopodium album, CHEAL); experiment: as above; conditions: 14 days after application, rating scale 0-100
In short: as §1

[24] = system: sicklepod (Cassia obtusifolia, CASOB); experiment: as above; conditions: 14 days after application, rating scale 0-100
In short: as §1

[25] = system: redroot pigweed (Amaranthus retroflexus, AMARE); experiment: as above; conditions: 14 days after application, rating scale 0-100
In short: as §1

[26] = system: ivyleaf morningglory (Ipomoea hederacea, IPOHE); experiment: as above; conditions: 14 days after application, rating scale 0-100
In short: as §1

O=c1n(-c2cc(Oc3ccc([N+](=O)[O-])cn3)c(Cl)cc2F)c(=S)n2n1CCCC2 [Compound 8-23]
90: AMARE phytotoxicity rating ([25]; Rate 125 g al/ha)
95: phytotoxicity rating CHEAL ([13]; rate 63 g ai/ha) | phytotoxicity rating AMARE ([15]; rate 63 g ai/ha) | ABUTH phytotoxicity rating ([21]; Rate 125 g al/ha)
0: SOY crop damage rating ([1]; Rate 125 g al/ha) | CORN crop damage rating ([4]; Rate 125 g al/ha) | CORN crop damage rating ([4]; Rate 500 g al/ha) | RICE crop damage rating ([5]; Rate 125 g al/ha) | RICE crop damage rating ([5]; Rate 500 g al/ha) | crop damage rating CORN ([6]; rate 63 g ai/ha) | crop damage rating RICE ([7]; rate 63 g ai/ha) | crop damage rating RICE ([7]; rate 500 g ai/ha) | phytotoxicity rating ECHCG ([8]; rate 63 g ai/ha) | phytotoxicity rating ECHCG ([8]; rate 500 g ai/ha) | phytotoxicity rating DIGSA ([9]; rate 63 g ai/ha) | phytotoxicity rating DIGSA ([9]; rate 500 g ai/ha) | phytotoxicity rating SORHA ([10]; rate 63 g ai/ha) | phytotoxicity rating SETVI ([12]; rate 63 g ai/ha) | AMBEL phytotoxicity rating ([17]; Rate 125 g al/ha) | ECHCG phytotoxicity rating ([18]; Rate 125 g al/ha) | DIGSA phytotoxicity rating ([19]; Rate 125 g al/ha) | SORHA phytotoxicity rating ([20]; Rate 125 g al/ha) | CASOB phytotoxicity rating ([24]; Rate 125 g al/ha)
5: crop damage rating CORN ([6]; rate 500 g ai/ha)
30: SORHA phytotoxicity rating ([20]; Rate 500 g al/ha) | IPOHE phytotoxicity rating ([26]; Rate 125 g al/ha)
20: SOY crop damage rating ([1]; Rate 500 g al/ha) | phytotoxicity rating SORHA ([10]; rate 500 g ai/ha) | phytotoxicity rating SETVI ([12]; rate 500 g ai/ha)
50: phytotoxicity rating AMBEL ([3]; rate 63 g ai/ha) | phytotoxicity rating IPOHE ([16]; rate 63 g ai/ha) | DIGSA phytotoxicity rating ([19]; Rate 500 g al/ha) | CASOB phytotoxicity rating ([24]; Rate 500 g al/ha)
25: crop damage rating SOY ([2]; rate 63 g ai/ha)
10: ECHCG phytotoxicity rating ([18]; Rate 500 g al/ha) | SETVI phytotoxicity rating ([22]; Rate 125 g al/ha)
70: phytotoxicity rating CASOB ([14]; rate 63 g ai/ha)
99: phytotoxicity rating CHEAL ([13]; rate 500 g ai/ha) | phytotoxicity rating AMARE ([15]; rate 500 g ai/ha)
60: crop damage rating SOY ([2]; rate 500 g ai/ha) | AMBEL phytotoxicity rating ([17]; Rate 500 g al/ha) | IPOHE phytotoxicity rating ([26]; Rate 500 g al/ha)
100: phytotoxicity rating AMBEL ([3]; rate 500 g ai/ha) | phytotoxicity rating ABUTH ([11]; rate 63 g ai/ha) | phytotoxicity rating ABUTH ([11]; rate 500 g ai/ha) | phytotoxicity rating CASOB ([14]; rate 500 g ai/ha) | phytotoxicity rating IPOHE ([16]; rate 500 g ai/ha) | ABUTH phytotoxicity rating ([21]; Rate 500 g al/ha) | SETVI phytotoxicity rating ([22]; Rate 500 g al/ha) | CHEAL phytotoxicity rating ([23]; Rate 125 g al/ha) | CHEAL phytotoxicity rating ([23]; Rate 500 g al/ha) | AMARE phytotoxicity rating ([25]; Rate 500 g al/ha)

O=c1n(-c2cc(Oc3ccc([N+](=O)[O-])cc3C(F)(F)F)c(Cl)cc2F)c(=S)n2n1CCCC2 [Compound 8-14]
30: SOY crop damage rating (0-100) ([2]; 63 g al/ha) | SOY crop damage rating (0-100) ([2]; 500 g al/ha) | SETVI phytotoxicity rating (0-100) ([12]; 63 g al/ha) | CASOB phytotoxicity rating (0-100) ([14]; 500 g al/ha) | phytotoxicity rating AMBEL ([17]; 500 g ai/ha) | phytotoxicity rating ABUTH ([21]; 125 g ai/ha)
95: ABUTH phytotoxicity rating (0-100) ([11]; 63 g al/ha) | ABUTH phytotoxicity rating (0-100) ([11]; 500 g al/ha) | phytotoxicity rating AMARE ([25]; 500 g ai/ha)
100: phytotoxicity rating CHEAL ([23]; 500 g ai/ha)
0: crop damage rating SOY ([1]; 125 g ai/ha) | crop damage rating SOY ([1]; 500 g ai/ha) | crop damage rating CORN ([4]; 125 g ai/ha) | crop damage rating CORN ([4]; 500 g ai/ha) | crop damage rating RICE ([5]; 125 g ai/ha) | crop damage rating RICE ([5]; 500 g ai/ha) | RICE crop damage rating (0-100) ([7]; 63 g al/ha) | RICE crop damage rating (0-100) ([7]; 500 g al/ha) | ECHCG phytotoxicity rating (0-100) ([8]; 63 g al/ha) | ECHCG phytotoxicity rating (0-100) ([8]; 500 g al/ha) | DIGSA phytotoxicity rating (0-100) ([9]; 63 g al/ha) | DIGSA phytotoxicity rating (0-100) ([9]; 500 g al/ha) | SORHA phytotoxicity rating (0-100) ([10]; 63 g al/ha) | SORHA phytotoxicity rating (0-100) ([10]; 500 g al/ha) | phytotoxicity rating AMBEL ([17]; 125 g ai/ha) | phytotoxicity rating ECHCG ([18]; 125 g ai/ha) | phytotoxicity rating ECHCG ([18]; 500 g ai/ha) | phytotoxicity rating DIGSA ([19]; 125 g ai/ha) | phytotoxicity rating SORHA ([20]; 125 g ai/ha) | phytotoxicity rating SORHA ([20]; 500 g ai/ha) | phytotoxicity rating SETVI ([22]; 125 g ai/ha) | phytotoxicity rating CASOB ([24]; 125 g ai/ha) | phytotoxicity rating CASOB ([24]; 500 g ai/ha) | phytotoxicity rating IPOHE ([26]; 125 g ai/ha) | phytotoxicity rating IPOHE ([26]; 500 g ai/ha)
20: SETVI phytotoxicity rating (0-100) ([12]; 500 g al/ha) | phytotoxicity rating DIGSA ([19]; 500 g ai/ha)
90: CHEAL phytotoxicity rating (0-100) ([13]; 500 g al/ha) | AMARE phytotoxicity rating (0-100) ([15]; 500 g al/ha)
80: CHEAL phytotoxicity rating (0-100) ([13]; 63 g al/ha) | IPOHE phytotoxicity rating (0-100) ([16]; 63 g al/ha) | phytotoxicity rating CHEAL ([23]; 125 g ai/ha)
40: AMBEL phytotoxicity rating (0-100) ([3]; 63 g al/ha) | CASOB phytotoxicity rating (0-100) ([14]; 63 g al/ha)
5: CORN crop damage rating (0-100) ([6]; 63 g al/ha) | CORN crop damage rating (0-100) ([6]; 500 g al/ha)
50: phytotoxicity rating SETVI ([22]; 500 g ai/ha)
85: IPOHE phytotoxicity rating (0-100) ([16]; 500 g al/ha)
60: AMBEL phytotoxicity rating (0-100) ([3]; 500 g al/ha) | phytotoxicity rating ABUTH ([21]; 500 g ai/ha)
70: AMARE phytotoxicity rating (0-100) ([15]; 63 g al/ha) | phytotoxicity rating AMARE ([25]; 125 g ai/ha)

Reference: US6479435B1, “Diaryl ethers and processes for their preparation and herbicidal and desiccant compositions containing them” (ISK Americas Incorporated, priority 1997, dated 2002)
